Measurements taken from patent US20240270821A1, “GIP/GLP1/GCG TRI-RECEPTOR AGONISTS AND USES THEREOF” (priority 2023, published 2024).
Substitutions are numbered along the chain they refer to. Where two headings read alike, the source gives them in different places. Starred links: 1 amine or outer side, 2 acyl side, 3 side chain; linkers in the order of their positions; H or OH if unused. Non-standard residues stand in square brackets, D forms with d. Groups on a side chain read outwards from the residue. No end group written: not given here. *: point of attachment. C18 diacid = O=C(O)CCCCCCCCCCCCCCCCC(=O)*; αMePhe(2-F) = C[C@](N)(Cc1ccccc1F)C(=O)O; γGlu = O=C(O)[C@H](CCC(=O)[*:2])N[*:1]; αMe4Pal = C[C@](N)(Cc1ccncc1)C(=O)O; αMeY = C[C@](N)(Cc1ccc(O)cc1)C(=O)O; 4Pal = N[C@@H](Cc1ccncc1)C(=O)O; αMeL = CC(C)C[C@](C)(N)C(=O)O; Orn = NCCC[C@H](N)C(=O)O; Dab = NCC[C@H](N)C(=O)O; AEEA = NCCOCCOCC(=O)O; Aib = CC(C)(N)C(=O)O

T1: hGIPR (Homo sapiens, UniProt P48546)
T1 sequence (P48546 22-466): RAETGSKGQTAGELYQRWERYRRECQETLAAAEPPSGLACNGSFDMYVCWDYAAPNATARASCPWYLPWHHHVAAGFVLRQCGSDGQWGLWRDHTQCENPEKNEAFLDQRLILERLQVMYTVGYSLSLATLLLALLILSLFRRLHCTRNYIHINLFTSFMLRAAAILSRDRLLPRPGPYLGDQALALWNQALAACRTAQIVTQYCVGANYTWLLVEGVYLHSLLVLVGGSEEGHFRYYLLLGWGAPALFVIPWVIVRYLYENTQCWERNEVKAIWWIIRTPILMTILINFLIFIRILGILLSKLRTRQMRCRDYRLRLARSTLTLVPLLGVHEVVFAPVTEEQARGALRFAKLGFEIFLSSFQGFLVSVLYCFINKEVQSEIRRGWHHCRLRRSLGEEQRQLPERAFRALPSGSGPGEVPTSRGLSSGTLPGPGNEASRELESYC

T2: human GIP receptor (human) (UniProt P48546)
T2 sequence (looked up): T1 sequence (P48546 22-466)

B1: Example 1121 (peptide)
chain: YXQGTFTSDXSQXLDKKAQXAFIEXLIEXGPSSGAPPPSGEE
modifications: Aib, 4Pal, αMeL, Me4Pal, acylated K, C-terminal amide; synthetic construct; SITE 2: note = 2-Aminoisobutyric Acid; SITE 10: note = 3-(4-Pyridyl)-L-alanine; SITE 13: note = alpha-methyl-leucine; SITE 17: note = Lysine is chemically modified through conjugation of the epsilon-amino group of the Lysine side chain with (gamma-Glu)2-CO-(CH2)16-CO2H; SITE 20:
B2: Example 1126 (peptide)
chain: B1 chain with X25Y, E41T
modifications: non-natural residues; (γGlu)2-C18 diacid on Lys; C-terminal amide; synthetic construct; SITE 2: note = 2-Aminoisobutyric Acid; SITE 10: note = 3-(4-Pyridyl)-L-alanine; SITE 13: note = alpha-methyl-leucine; SITE 17: note = Lysine is chemically modified through conjugation of the epsilon-amino group of the Lysine side chain with (gamma-Glu)2-CO-(CH2)16-CO2H; SITE 20:
B3: Example 1142 (peptide)
chain: YXQGTXTSDXXIXLDXKAQXEFIEXLIEGGPSSGAPPPTGE
modifications: Aib, αMeF(2F), 4Pal, αMeS, αMeL, Orn, Me4Pal, αMeY, acyl, amide; synthetic construct; SITE 2: note = 2-Aminoisobutyric Acid; SITE 6: note = alpha-methyl-2-fluoro-L-phenylalanine; SITE 10: note = 3-(4-Pyridyl)-L-alanine; SITE 11: note = alpha-methyl-L-serine; SITE 13: note = alpha-methyl-leucine; SITE 16: note = L-ornithine; SITE 17: note = Lysine is chemically mo

How the values were obtained:
[1] = molecular target: hGcgR (Homo sapiens, UniProt P47871); assay: Functional cAMP activation in the presence of 0.1% casein (no HSA); type: cell-based; details: read-out: Relative cAMP EC50, hGcgR;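 also: intracellular cAMP rise after 30 min at 37 °C, read by HTRF against a cAMP standard curve, scaled from buffer only (0%) to maximal control ligand response (100%)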
Chain of hGcgR (P47871 26-477): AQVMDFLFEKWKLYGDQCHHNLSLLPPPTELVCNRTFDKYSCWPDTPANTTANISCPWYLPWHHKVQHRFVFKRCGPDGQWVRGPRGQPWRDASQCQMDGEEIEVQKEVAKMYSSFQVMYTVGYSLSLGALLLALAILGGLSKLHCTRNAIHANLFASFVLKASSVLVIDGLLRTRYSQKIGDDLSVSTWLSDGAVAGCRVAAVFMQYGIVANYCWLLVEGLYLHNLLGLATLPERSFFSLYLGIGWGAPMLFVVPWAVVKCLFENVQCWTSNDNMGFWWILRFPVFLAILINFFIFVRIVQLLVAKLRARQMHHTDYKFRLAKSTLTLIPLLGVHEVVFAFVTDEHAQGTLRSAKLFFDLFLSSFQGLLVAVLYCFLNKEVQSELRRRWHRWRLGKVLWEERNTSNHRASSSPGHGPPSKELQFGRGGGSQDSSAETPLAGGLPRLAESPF

[2] = molecular target: human GcgR (Homo sapiens, UniProt P47871); assay: Functional cAMP activity in the presence of 1% HSA; type: cell-based; details: read-out: cAMP Rel EC50, hGcgR
Chain of human GcgR (P47871 26-477): as above

[3] = molecular target: T3, hGLP-1R (Homo sapiens, UniProt P43220); assay: Functional cAMP activation in the presence of 0.1% casein (no HSA); type: cell-based; details: read-out: Relative cAMP EC50, hGLP-1R;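 also: intracellular cAMP rise after 30 min at 37 °C read by HTRF, normalized between buffer only (0%) and maximal control ligand (100%), four-parameter variable-slope fit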
T3 sequence (P43220 24-463): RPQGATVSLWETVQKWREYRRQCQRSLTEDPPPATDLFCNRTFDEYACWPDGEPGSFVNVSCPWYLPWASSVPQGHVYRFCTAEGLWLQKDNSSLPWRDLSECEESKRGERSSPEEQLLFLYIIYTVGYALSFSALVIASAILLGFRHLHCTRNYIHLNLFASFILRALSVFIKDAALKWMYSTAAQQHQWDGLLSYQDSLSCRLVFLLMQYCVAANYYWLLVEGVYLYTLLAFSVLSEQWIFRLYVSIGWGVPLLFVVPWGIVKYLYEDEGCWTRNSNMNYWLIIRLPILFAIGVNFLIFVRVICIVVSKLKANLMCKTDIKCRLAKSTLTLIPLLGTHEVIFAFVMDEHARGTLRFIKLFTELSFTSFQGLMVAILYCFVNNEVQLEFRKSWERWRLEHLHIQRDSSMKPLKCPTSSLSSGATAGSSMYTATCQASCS

[4] = molecular target: T1, hGIPR; assay: Functional cAMP activity in the presence of 1% HSA; type: cell-based; details: read-out: cAMP Rel EC50, hGIPR
[5] = molecular target: T1, hGIPR; assay: Functional cAMP activation in the presence of 0.1% casein (no HSA); type: cell-based; details: read-out: Relative cAMP EC50, hGIPR;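 also: intracellular cAMP rise after 30 min at 37 °C read by HTRF against a standard curve, scaled between buffer alone (0%) and top control ligand concentration (100%), four-parameter fit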
[6] = molecular target: T2, human GIP receptor (human); assay: cell-based or functional assay
[7] = molecular target: T3, hGLP-1R; assay: cell-based or functional assay
[8] = molecular target: human glucagon receptor (human) (UniProt P47871); assay: cell-based or functional assay
Chain of human glucagon receptor (human) (P47871 26-477): as the sequence (P47871 26-477) above

[9] = in the presence of 0.1% casein (no HSA), geometric mean
[10] = HEK-293 clonal cell line, in the presence of 1% HSA, geometric mean of relative EC50

Row | Molecule | EC50 [1, 9] | EC50 [3, 9] | EC50 [5, 9] | EC50 [2] | EC50 [4] | also measured
1 | H-Y[Aib]QGTFTSDFS[Orn][αMeL]LDKK([γGlu-γGlu-C18 diacid])AQ[Aib]AFIEYLLAGGPSSGAPPPEGSEE-NH2 [Example 1051] | 10.3 nM | 8.3 nM | 0.172 nM |  |  | EC50 [2, 10]: 1800 nM; EC50 [4, 10]: 32.6 nM
2 | H-Y[Aib]QGTFTSDFS[Orn][αMeL]LD[Orn]K([γGlu-γGlu-C18 diacid])AQ[Aib]AFIE[αMe4Pal]LLAGGPSSGAPPPEGSEE-NH2 [Example 1053] | 10.4 nM | 6.2 nM | 0.123 nM |  |  | EC50 [2, 10]: 3470 nM; EC50 [4, 10]: 19.3 nM
3 | H-Y[Aib]QGTFTSD[4Pal]S[Dab][αMeL]LDKK([AEEA-γGlu-C18 diacid])AQ[Aib]AFIEYLIE[Aib]GPSSGAPPPSGS-NH2 [Example 803] | 9.75 nM | 2.02 nM | 0.232 nM |  |  | 
4 | H-Y[Aib]QGT[αMePhe(2-F)]TSD[4Pal]SILLDKK([γGlu-γGlu-C18 diacid])AQ[Aib]AFIEYLTEGGPSSGAPPPSGTE-NH2 [Example 554] |  |  |  | 946 nM | 4.08 nM | EC50 [1]: 6.83 nM; EC50 [3]: 0.423 nM; EC50 [5]: 0.0323 nM
5 | H-Y[Aib]QGTFTSD[4Pal]S[Orn][αMeL]LD[Orn]K([Glu-γGlu-C18 diacid])AQ[αMe4Pal]AFIEYLIAGGPSSGAPPPSGSEE-NH2 [Example 1061] | 17.3 nM | 4.56 nM | 0.656 nM | 2910 nM | 55.6 nM | 
6 | Y[Aib]QGTFTSD[4Pal]SQ[αMeL]LD[Orn]K([dE-γGlu-C18 diacid])AQ[αMe4Pal]AFIE[αMeY]LLEGGPSSGAPPPSGSEE-NH2 [Example 1058] | 5.8 nM | 4.48 nM | 0.139 nM | 1450 nM | 45.6 nM | 
7 | H-Y[Aib]QGTFTSD[4Pal]S[Orn][αMeL]LD[Orn]K([γGlu-γGlu-C18 diacid])AQ[αMe4Pal]AFIEYLIAGGPSSGAPPPSGSEE-NH2 [Example 1059] | 7.52 nM | 4.61 nM | 0.468 nM | 748 nM | 48.9 nM | 
8 | H-Y[Aib]QGTFTSD[4Pal]S[Orn][αMeL]LD[Orn]K([Glu-Glu-γGlu-C18 diacid])AQ[αMe4Pal]AFIEYLIAGGPSSGAPPPSGSEE-NH2 [Example 1062] | 8.77 nM | 7.75 nM | 0.726 nM | 2380 nM | 67.5 nM | 
9 | H-Y[Aib]QGTFTSD[4Pal]SQ[αMeL]LD[Orn]K([Glu-γGlu-C18 diacid])AQ[αMe4Pal]AFIEYLLAGGPSSGAPPPSGSEE-NH2 [Example 1057] | 5.29 nM | 5.16 nM | 0.128 nM | 2780 nM | 25.9 nM | 
10 | H-Y[Aib]QGTFTSD[4Pal]SR[αMeL]LDKK([AEEA-γGlu-C18 diacid])AQ[Aib]AFIEYLIE[Aib]SPSSGAPPPSGS-NH2 [Example 807] | 12.4 nM | 1.72 nM | 0.108 nM |  |  | 
11 | CC[C@H](C)[C@H](NC(=O)[C@H](CO)NC(=O)[C@H](Cc1ccc(O)cc1)NC(=O)[C@H](CC(=O)O)NC(=O)[C@H](CO)NC(=O)[C@@H](NC(=O)[C@H](Cc1ccccc1)NC(=O)[C@@H](NC(=O)CNC(=O)[C@H](CCC(=O)O)NC(=O)[C@H](C)NC(=O)[C@@H](N)Cc1ccc(O)cc1)[C@@H](C)O)[C@@H](C)CC)C(=O)N[C@@H](C)C(=O)N[C@@H](CCSC)C(=O)N[C@@H](CC(=O)O)C(=O)N[C@@H](CCCCN)C(=O)N[C@H](C(=O)N[C@@H](Cc1c[nH]cn1)C(=O)N[C@@H](CCC(N)=O)C(=O)N[C@@H](CCC(N)=O)C(=O)N[C@@H](CC(=O)O)C(=O)N[C@@H](Cc1ccccc1)C(=O)N[C@H](C(=O)N[C@@H](CC(N)=O)C(=O)N[C@@H](Cc1c[nH]c2ccccc12)C(=O)N[C@@H](CC(C)C)C(=O)N[C@@H](CC(C)C)C(=O)N[C@@H](C)C(=O)N[C@@H](CCC(N)=O)C(=O)N[C@@H](CCCCN)C(=O)NCC(=O)N[C@@H](CCCCN)C(=O)N[C@@H](CCCCN)C(=O)N[C@@H](CC(N)=O)C(=O)N[C@@H](CC(=O)O)C(=O)N[C@@H](Cc1c[nH]c2ccccc12)C(=O)N[C@@H](CCCCN)C(=O)N[C@@H](Cc1c[nH]cn1)C(=O)N[C@@H](CC(N)=O)C(=O)N[C@H](C(=O)N[C@H](C(=O)N[C@@H](CCC(N)=O)C(N)=O)[C@@H](C)O)[C@@H](C)CC)C(C)C)[C@@H](C)CC [hGIP 1-42 amide] | > 99.5 nM |  |  | > 9950 nM |  | 
12 | B1 |  |  |  |  |  | Relative cAMP EC50 [6]: 0.115 nM; Relative cAMP EC50 [7]: 5.23 nM; Relative cAMP EC50 [8]: 8.83 nM
13 | B2 |  |  |  |  |  | Relative cAMP EC50 [6]: 0.174 nM; Relative cAMP EC50 [7]: 4.56 nM; Relative cAMP EC50 [8]: 3.92 nM
14 | B3 |  |  |  |  |  | Relative cAMP EC50 [6]: 0.00706 nM; Relative cAMP EC50 [7]: 0.329 nM; Relative cAMP EC50 [8]: 1.34 nM
